Laboratory results from patent publication US10053422B2, “Compounds for the treatment of mTOR pathway related diseases” (Pitney Pharmaceuticals Pty Limited, priority 2012, dated 2018).
Like-named read-outs stand apart in the source and are kept apart here.

Legend:
YOU cells (mesothelioma) = assay: SRB cell proliferation assay, YOU; format: cell-based; conditions: for IC50: YOU
Procedure: (§1) Cell proliferation was assessed using the sulforhodamine B (SRB) assay. Cells seeded in 96-well plate (2,000-3,000 cell/well) were treated with MPL (0, 1, 5, 10, 25, 50 and 100 μmol/L) for 72 h. Cells were then fixed, washed and stained with 100 μl of 0.4% (w/v) SRB dissolved in 1% acetic acid. Unbound dye was removed by five washes with 1% acetic acid before air drying. Bound SRB was solubilized with 100 μl of 10 mM Tris base (pH 10.5) and the absorbance read at 570 nm. Exactly the same procedure was used to assess MPL-SO2. Both agents were dissolved in ethanol and diluted with media to give the final concentrations required for cell culture assays.

U87 cells (glioblastoma) = assay: SRB cell proliferation assay, U87; format: cell-based; conditions: for IC50: Homo sapiens, U-87 MG
Procedure: as §1

[1] = system: DU-145 prostate cancer cells; assay: SRB cell proliferation assay, DU-145; format: cell-based; conditions: for IC50: Homo sapiens
Procedure: as §1

[2] = system: Normal cells HOSE, CHO, HEK and HUVEC; assay: Cell viability assay (Trypan blue), normal cells; format: cell-based; conditions: MPL 0, 5, 10, 25 μmol/L, 72 h
Procedure: Normal cells HOSE, CHO, HEK and HUVEC were cultured in the presence of MPL (0, 5, 10, 25, μmol/L) for 72 h. Effect of MPL on cell viability was assessed using the standard Trypan blue assay. Results are presented as mean±SEM compared to control (100%).
For viability experiments, cells seeded in 6 well plates were exposed to monepantel (MPL) at 0, 1, 10, 50 and 100 μM concentrations for 24, 48 or 72 h. Monepantel (gift by Novartis, Basel, Switzerland) was dissolved in 100% ethanol and then diluted with the cell culture media. At the end of treatment period, cells were washed with PBS, trypsinized and counted using Trypan blue and hemocytometer. All experimental points were set up in quadruplicate and each experiment was performed at least twice.
In brief, MPL and MPL-SO2 were tested in vitro against a wide range of cancer cell-lines with extensively different disease characteristics. For further detailed studies, human ovarian cancer cell lines OVCAR-3 and A2780 were chosen. […] Cell viability was assessed using Trypan blue assay (FIG. 9). Similarly, effect of MPL on the growth of normal epithelial, endothelial, embryonic and fetal cells were investigated (FIG. 10) while cell proliferation was assessed using the SRB assay (FIG. 11). Control (vehicle treated) cells were taken to present 100% proliferation and the MPL treated groups are expressed as percentage of control±SEM. […]

[3] = system: A2780 ovarian cancer cells; assay: Autophagy (vacuole formation), A2780; format: cell-based, human
Description: Autophagy is a characteristic of mTOR inhibition.

cancer cell lines = assay: SRB cell proliferation assay, range of cancer cell lines (general statements); format: cell-based
Procedure: as §1
In brief, MPL and MPL-SO2 were tested in vitro against a wide range of cancer cell-lines with extensively different disease characteristics. For further detailed studies, human ovarian cancer cell lines OVCAR-3 and A2780 were chosen. Additionally, normal human ovarian surface epithelial cells (HOSE) and were cultured in the presence of MPL (0, 5, 10, 25, 50 and 100 μM) for 72 h. Cell viability was assessed using Trypan blue assay (FIG. 9). Similarly, effect of MPL on the growth of normal epithelial, endothelial, embryonic and fetal cells were investigated (FIG. 10) while cell proliferation was assessed using the SRB assay (FIG. 11). Control (vehicle treated) cells were taken to present 100% proliferation and the MPL treated groups are expressed as percentage of control±SEM. Each drug concentration was tested in quadruplicate and each experiment was repeated at least twice. For statistical comparisons, each drug treated group is compared to the control group using Student's t test. To examine concentration dependent drug effect, analysis of variance (ANOVA) was used. P values are: *=<0.05; **<0.01 and ***=<0.001, **** p<0.0001. […] In order to find out if the MPL effect is mediated through the nicotinic acetyl choline receptor and in particular the nACHR7 subtype, cells were pretreated with antagonists and then exposed to MPL (FIG. 12).

T47-D cells = assay: SRB cell proliferation assay, T47-D; format: cell-based; conditions: Homo sapiens, T47D
Procedure: as §1

3T3 fibroblast = assay: SRB cell proliferation assay, 3T3; format: cell-based; conditions: 3T3, fibroblast (Table 2); read-out: IC50 in suppressing proliferation
Procedure: as §1

SKOV-3 cells = assay: SRB cell proliferation assay, SKOV-3; format: cell-based; conditions: Homo sapiens, SK-OV-3
Procedure: as §1

IGROV-1 cells = assay: SRB cell proliferation assay, IGROV-1; format: cell-based; conditions: Homo sapiens
Procedure: as §1

OVCAR-3 or A2780 cells = assay: Cell cycle analysis by flow cytometry; format: cell-based, human
Procedure: OVCAR-3 (FIG. 3a) or A2780 (FIG. 3b) cells were treated with MPL (0, 5, 10 and 25 μmol/L) for 48 hours. Propodium iodide stained cells were analysed for DNA content using flow cytometric analysis. The results (see table) are shown as a percentage of cells in G1, S and G2/M phases. Each value represents mean±SEM of 2 independent experiments.
OVCAR-3 or A2780 cells were treated with MPL (0, 5, 10, 25 μM) for 48 h and examined by flow cytometric analysis (FACS) after staining the cells with PI. The Fig. and data present MPL-induced change in cell distribution in various phases of the cell cycle, here shown as percentage of cells in G1, S and G2/M phases. Each value represents mean±SEM of 2 independent determinations.
The effect of MPL on the cell cycle was determined using standard flow cytometry analysis protocols and procedures. Briefly, 0.7×10^6 […] cells seeded in […] flasks and allowed to adhere overnight were treated with MPL for 24 or 48 h. Cells were collected with trypsinization and pooled with the cells floating in the medium. The cell suspensions were centrifuged, washed with PBS and fixed with methanol. Cells were then washed, resuspended in propodium iodide and ribonuclease A in PBS for 30 min at room temperature and analyzed by flow cytometry (Becton Dickinson FACSort).

[4] = cited from earlier work
[5] = system: CHO (Chinese hamster ovarian cells); assay: SRB cell proliferation assay, CHO; format: cell-based; conditions: Cricetulus griseus; CHO = Chinese hamster ovarian cells (Table 3); read-out: IC50 μM CHO
Procedure: as §1

[6] = highly resistant to chemotherapy

C[C@](C#N)(COc1cc(C#N)ccc1C(F)(F)F)NC(=O)c1ccc(SC(F)(F)F)cc1 [MPL, N-[(1S)-1-Cyano-2-(5-cyano-2-trifluoromethyl-phenoxy)-1-methyl-ethyl]-4-trifluoromethylsulfanyl-benzamide]
IC50 (YOU cells (mesothelioma); mesothelioma (Table 2), read-out: IC50 in suppressing proliferation): 23 µM | IC50 (YOU cells (mesothelioma); mesothelioma, 72 h, SRB assay (Table 1), read-out: IC50): 23.1 µM | replication of YOU cells (YOU cells (mesothelioma); [6]): profoundly suppressed | IC50 (U87 cells (glioblastoma); U87, glioblastoma, 72 h, SRB assay (Table 1), read-out: IC50): 26.2 µM | IC50 (U87 cells (glioblastoma); U87, glioma (Table 2), read-out: IC50 in suppressing proliferation): 18 µM | replication of U87 cells (U87 cells (glioblastoma); [6]): profoundly suppressed | IC50 ([1]; DU-145, prostate cancer (Table 2), read-out: IC50 in suppressing proliferation): 23 µM | IC50 ([1]; DU-145, prostate cancer, 72 h, SRB assay (Table 1), read-out: IC50): 23.5 µM | effect on DU 145 cells ([1]; chemo-resistant, androgen insensitive DU 145): very effective | viability of normal cells [2]: cancer cell orientated | formation of vacuoles (autophagy) [3]: formation of vacuoles | antiproliferative action on chemo-resistant cell lines (cancer cell lines; ovarian chemo-resistant, glioma temozolimide resistant, breast cancer tamoxifen resistant cells): sensitive | antiproliferative activity, cancer cell lines versus normal cells (cancer cell lines; results of Table 2): high antiproliferative activity in cancer cell lines, whereas, normal cells are far less affected | IC50 (T47-D cells; breast cancer (Table 2), read-out: IC50 in suppressing proliferation): 5.3 ± 0.003 µM | IC50 (T47-D cells; breast cancer, 72 h, SRB assay (Table 1), read-out: IC50): 5.7 µM | IC50 (3T3 fibroblast): 12.4 ± 0.37 µM | IC50 (SKOV-3 cells; SKOV-3, ovarian cancer (Table 2), read-out: IC50 in suppressing proliferation): 31.2 ± 0.76 µM | IC50 (SKOV-3 cells; SKOV-3, ovarian cancer, 72 h, SRB assay (Table 1), read-out: IC50): 29.3 µM | IC50 (IGROV-1 cells; IGROV-1, ovarian cancer (Table 2), read-out: IC50 in suppressing proliferation): 4.4 ± 0.27 µM | IC50 (IGROV-1 cells; IGROV-1, ovarian cancer, 72 h, SRB assay (Table 1), read-out: IC50): 6.1 µM | percentage of cells in the G2-M phase, vehicle treated group versus treated group (OVCAR-3 or A2780 cells; 25 μM MPL): more than three times higher | cell cycle progression (OVCAR-3 or A2780 cells; concentration and time-dependent): arrested in the G1 phase | clinical tolerance ([4]; 1000 mg of MPL per kg of body weight per 24 hours, mammals): well tolerated | dose tolerated by animals when used as an anthelmintic ([4]; animals): up to 2000 mg/kg | single-dose toxicity ([4]; single dose): > 2000 mg per kg of body weight | IC50 [5]: 34.6 µM
